We go through 9 molecules from ChEMBL document CHEMBL4184215, “Lysosomes-targeting imaging and anticancer properties of novel bis-naphthalimide derivatives” (Bioorg Med Chem Lett, 2018).

Active and inactive are the calls of the source. No cut-off for these calls is given here.

Data set [1] deals with HeLa. The data set can be described thus: Cytotoxicity against human HeLa cells assessed as reduction in cell viability incubated for 48 hrs by MTT assay. Format: functional, cell-based. On the technique in general: Tetrazolium dyes change colour on reduction, which living cells bring about.
The next data set deals with MCF7. As to the kind of experiment: Cytotoxicity against human MCF7 cells assessed as reduction in cell viability incubated for 48 hrs by MTT assay. The class given is functional, cell-based. Conditions: MCF7, 48 h.
Another data set deals with A549. The data set can be described thus: Cytotoxicity against human A549 cells assessed as reduction in cell viability incubated for 48 hrs by MTT assay. The note with it: A549, 48 h. Format: functional, cell-based.
Another data set deals with MGC-803. As to the kind of experiment: Cytotoxicity against human MGC803 cells assessed as reduction in cell viability incubated for 48 hrs by MTT assay. Format: functional, cell-based. Conditions: MGC-803, 48 h.
Data set [2] deals with Calf thymus DNA. The data set can be described thus: Binding affinity to calf thymus DNA assessed as reduction in compound self absorption intensity at 1 x 10^-5 M by UV-Visible spectroscopy. Format: nucleic-acid assay. The note with it: Bos taurus.
Data set [3] relates to Calf thymus DNA. As to the kind of experiment: Binding affinity to calf thymus DNA assessed as induction of bathochromic shift of maximum absorption peaks at 1 x 10^-5 M by UV-Visible spectroscopy (reference value: 426 nanometer). Conditions: Bos taurus. Format: nucleic-acid assay.
Data set [4] deals with Calf thymus DNA. As to the kind of experiment: Binding affinity to calf thymus DNA at 1 x 10^-5 M by UV-Visible spectroscopy. Format: nucleic-acid assay. Conditions: Bos taurus.
The test system of data set [5] is Calf thymus DNA. The data set can be described thus: Binding affinity to calf thymus DNA assessed as increase in compound fluorescence intensity at 1 x 10^-5 M by fluorescence spectroscopy. Format: nucleic-acid assay. The note with it: Bos taurus.
Data set [6] relates to Calf thymus DNA. The data set can be described thus: Binding affinity to calf thymus DNA assessed as induction of maximum emission band shift at 1 x 10^-5 M by fluorescence spectroscopy. The class given is nucleic-acid assay. The note with it: Bos taurus.
Data set [7] concerns Calf thymus DNA. The data set can be described thus: Binding affinity to calf thymus DNA assessed as increase in intensity of positive band at 275 nm at 8 uM to 40 uM by CD spectroscopy. The class given is nucleic-acid assay. The note with it: Bos taurus.
In data set [8] the test system is Calf thymus DNA. The data set can be described thus: Binding affinity to calf thymus DNA assessed as induction of ICD signal changes at 8 uM to 40 uM by CD spectroscopy. Format: nucleic-acid assay. Conditions: Bos taurus.
The test system of data set [9] is Calf thymus DNA. As to the kind of experiment: Binding affinity to calf thymus DNA assessed as change in melting temperature at 5 uM. Format: nucleic-acid assay. The note with it: Bos taurus.
Data set [10] is described as follows: Drug accumulation in lysosome of human HeLa cells at 5 uM incubated for 1 hr by lysososmal tracker DND-99 based confocal microscopy. Format: ADME, subcellular.
For data set [11], the system named is HeLa. As to the kind of experiment: Cell cycle arrest in human HeLa cells assessed as accumulation at G1 phase at 2.5 uM incubated for 12 hrs by propidium iodide staining based flow cytometry (reference value: 65.2%). Format: functional. On the technique in general: A flow cytometer gives signals particle by particle.
Data set [12] relates to HeLa. As to the kind of experiment: Cell cycle arrest in human HeLa cells assessed as accumulation at G2 phase at 2.5 uM incubated for 12 hrs by propidium iodide staining based flow cytometry (reference value: 7%). Format: functional.
Data set [13] relates to HeLa. The data set can be described thus: Cell cycle arrest in human HeLa cells assessed as accumulation at S phase at 2.5 uM incubated for 12 hrs by propidium iodide staining based flow cytometry (reference value: 27.8%). The class given is functional.
The subject of data set [14] is HeLa. As to the kind of experiment: Cell cycle arrest in human HeLa cells assessed as accumulation at G1 phase at 5 uM incubated for 12 hrs by propidium iodide staining based flow cytometry (reference value: 65.2%). The class given is functional.
Data set [15] concerns HeLa. The data set can be described thus: Cell cycle arrest in human HeLa cells assessed as accumulation at G2 phase at 5 uM incubated for 12 hrs by propidium iodide staining based flow cytometry (reference value: 7%). The class given is functional.
The subject of data set [16] is HeLa. As to the kind of experiment: Cell cycle arrest in human HeLa cells assessed as accumulation at S phase at 5 uM incubated for 12 hrs by propidium iodide staining based flow cytometry (reference value: 27.8%). Format: functional.
For data set [17], the system named is HeLa. The data set can be described thus: Cell cycle arrest in human HeLa cells assessed as accumulation at G1 phase at 7.5 uM incubated for 12 hrs by propidium iodide staining based flow cytometry (reference value: 65.2%). Format: functional.
Data set [18] concerns HeLa. As to the kind of experiment: Cell cycle arrest in human HeLa cells assessed as accumulation at G2 phase at 7.5 uM incubated for 12 hrs by propidium iodide staining based flow cytometry (reference value: 7%). The class given is functional.
Data set [19] concerns HeLa. The data set can be described thus: Cell cycle arrest in human HeLa cells assessed as accumulation at S phase at 7.5 uM incubated for 12 hrs by propidium iodide staining based flow cytometry (reference value: 27.8%). The class given is functional.
For data set [20], the system named is Calf thymus DNA. As to the kind of experiment: Binding affinity to calf thymus DNA assessed as increase in compound fluorescence intensity at 1 x 10^-5 M up to 1.4 x 10^-4M DNA by fluorescence spectroscopy. The class given is nucleic-acid assay. The note with it: Bos taurus.
In data set [21] the test system is Calf thymus DNA. The data set can be described thus: Binding affinity to calf thymus DNA assessed as increase in […] shift at 1 x 10^-5 M by fluorescence spectroscopy (reference value: 542 nanometer). Conditions: Bos taurus. Format: nucleic-acid assay.

A word on the IC50: it is the concentration that inhibits the measured activity by half. Broadly, the ΔTm is the shift of the melting midpoint relative to a reference. For the molecule `Cl.Cl.Cl.Cl.O=C1c2cccc3c(N4CCC(O)CC4)ccc(c23)C(=O)N1CCCNCCNCCCN1C(=O)c2cccc3c(N4CCC(O)CC4)ccc(c23)C1=O`, the IC50 in the data set on HeLa [1] stood at 2.89 µM; with MCF7, 37.1 µM; in the data set with A549, 46.2 µM; with MGC-803, 0.6 µM. Also, the result in the data set on Calf thymus DNA [2], in the data set on Calf thymus DNA [5], with Calf thymus DNA [7] and in the data set on Calf thymus DNA [8] was Active. Besides, the Activity with Calf thymus DNA [3] turned out to be 445 nm; with HeLa [11] it was 47.5%; with HeLa [12], 11.7%; in the data set on HeLa [13], 40.8%; with HeLa [14], 44.9%; with HeLa [15] it was 9.9%. The Activity with HeLa [16] came to 45.2%; with HeLa [17], 44.3%; in the data set with HeLa [18], 5.3%; with HeLa [19], 50.4%. In addition, the K in the data set on Calf thymus DNA [4] was 1.8 ×10⁵ /M. In addition, the outcome in the data set with Calf thymus DNA [6] was inactive. In addition, the thermal shift (ΔTm) in the data set with Calf thymus DNA [9] came out at 8.2 °C. Moreover, the Drug uptake entry in data set [10] is recorded as “Active”.

For `O=C1c2cccc3c(N4CC[C@@H](O)C4)ccc(c23)C(=O)N1CCCNCCNCCCN1C(=O)c2cccc3c(N4CC[C@@H](O)C4)ccc(c23)C1=O`, the 50% inhibitory concentration (IC50) in the data set with HeLa [1] came out at 45.4 µM; with MCF7, 74.6 µM; in the data set on A549, 23 µM; with MGC-803, 9.41 µM.

Take `O=C1c2cccc3c(N4CCC(CCO)CC4)ccc(c23)C(=O)N1CCCNCCNCCCN1C(=O)c2cccc3c(N4CCC(CCO)CC4)ccc(c23)C1=O`: the half-maximal inhibitory concentration (IC50) in the data set on HeLa [1] turned out to be 6.88 µM; in the data set with MCF7, 11.1 µM; in the data set with A549 it was 43.5 µM; in the data set with MGC-803 it was 90.4 µM.

Take `O=C1c2cccc3c(N4CCC(CO)CC4)ccc(c23)C(=O)N1CCCNCCNCCCN1C(=O)c2cccc3c(N4CCC(CO)CC4)ccc(c23)C1=O`: the half-inhibitory concentration (IC50) with HeLa [1] worked out at 4.03 µM; with MCF7, 22.7 µM; in the data set with A549, 14 µM; in the data set with MGC-803, 2.03 µM.

In the case of `O=C1c2cccc3c(N4CC[C@H](O)C4)ccc(c23)C(=O)N1CCCNCCNCCCN1C(=O)c2cccc3c(N4CC[C@H](O)C4)ccc(c23)C1=O`, the half-inhibitory concentration (IC50) with HeLa [1] amounted to 35.4 µM; with MCF7, 142 µM; in the data set on A549, 83.6 µM; in the data set on MGC-803 it was 5.96 µM.

Consider `O=C1c2cccc3c(N4CCC[C@H]4CO)ccc(c23)C(=O)N1CCCNCCNCCCN1C(=O)c2cccc3c(N4CCC[C@H]4CO)ccc(c23)C1=O`, for which the 50% inhibitory concentration (IC50) was 85.2 µM in the data set with HeLa [1], 147 µM in the data set on MCF7, 472 µM with A549 and 35.1 µM in the data set with MGC-803.

Take `Cl.Cl.Cl.Cl.O=C1c2cccc3c(N4CCN(CCO)CC4)ccc(c23)C(=O)N1CCCNCCNCCCN1C(=O)c2cccc3c(N4CCN(CCO)CC4)ccc(c23)C1=O`: the IC50 with HeLa [1] was 2.73 µM; in the data set with MCF7 it was 20 µM; in the data set on A549, 2.59 µM; with MGC-803 it was 1.6 µM. Further, the result in the data set with Calf thymus DNA [2], in the data set on Calf thymus DNA [20], with Calf thymus DNA [7] and with Calf thymus DNA [8] was Active. The result with Calf thymus DNA [3] was inactive. Also, the K in the data set on Calf thymus DNA [4] is 2.6 ×10⁵ /M. Besides, the Activity in the data set with Calf thymus DNA [21] worked out at 528 nm; in the data set with HeLa [11] it was 48.9%; with HeLa [12], 10.9%; in the data set with HeLa [13], 40.2%; with HeLa [14], 46%; in the data set with HeLa [15] it was 4.3%. The Activity in the data set on HeLa [16] came to 49.7%; with HeLa [17] it was 42.6%; in the data set on HeLa [18], 3.7%; with HeLa [19] it was 53.87%. Further, the ΔTm in the data set with Calf thymus DNA [9] worked out at 14.3 °C. Further, the Drug uptake result in [10] is “Active”.

With `CN(C)CCN1C(=O)c2cccc3cc(N)cc(c23)C1=O` [AMONAFIDE], the half-inhibitory concentration (IC50) with HeLa [1] was found to be 3.41 µM; in the data set on MCF7 it was 6.79 µM; in the data set with A549, 2 µM; with MGC-803 it was 3.23 µM.

For `O=C1c2cccc3c(N4CCC[C@@H]4CO)ccc(c23)C(=O)N1CCCNCCNCCCN1C(=O)c2cccc3c(N4CCC[C@@H]4CO)ccc(c23)C1=O`, the IC50 was 89.2 µM with HeLa [1], 93.5 µM in the data set on MCF7, 72.6 µM in the data set with A549 and 6.41 µM in the data set with MGC-803.
